The record followed here is ChEMBL document CHEMBL3853265 (Medchemcomm, 2016).

≈ marks a conversion by molar mass, not a printed value.

A short description of data set [1]: Solubility of the compound at pH 6.5. The class given is physicochemical. The following applies: buffer.
Data set [2] is described as follows: Intrinsic clearance in rat liver microsomes. Format: ADME. Particulars: read-out: CLH. On the technique in general: Microsomes from liver hold many membrane-bound enzymes, among them those of drug oxidation.
The nature of data set [3]: Fraction unbound in human plasma. Format: ADME, cell-free.
Data set [4] in a line: Fraction unbound in dog plasma. Format: ADME, cell-free, Canis lupus familiaris.
The target of data set [5] is T1, Solute carrier organic anion transporter family member 1B1 (Homo sapiens, UniProt Q9Y6L6).
T1 sequence (Q9Y6L6 whole entry): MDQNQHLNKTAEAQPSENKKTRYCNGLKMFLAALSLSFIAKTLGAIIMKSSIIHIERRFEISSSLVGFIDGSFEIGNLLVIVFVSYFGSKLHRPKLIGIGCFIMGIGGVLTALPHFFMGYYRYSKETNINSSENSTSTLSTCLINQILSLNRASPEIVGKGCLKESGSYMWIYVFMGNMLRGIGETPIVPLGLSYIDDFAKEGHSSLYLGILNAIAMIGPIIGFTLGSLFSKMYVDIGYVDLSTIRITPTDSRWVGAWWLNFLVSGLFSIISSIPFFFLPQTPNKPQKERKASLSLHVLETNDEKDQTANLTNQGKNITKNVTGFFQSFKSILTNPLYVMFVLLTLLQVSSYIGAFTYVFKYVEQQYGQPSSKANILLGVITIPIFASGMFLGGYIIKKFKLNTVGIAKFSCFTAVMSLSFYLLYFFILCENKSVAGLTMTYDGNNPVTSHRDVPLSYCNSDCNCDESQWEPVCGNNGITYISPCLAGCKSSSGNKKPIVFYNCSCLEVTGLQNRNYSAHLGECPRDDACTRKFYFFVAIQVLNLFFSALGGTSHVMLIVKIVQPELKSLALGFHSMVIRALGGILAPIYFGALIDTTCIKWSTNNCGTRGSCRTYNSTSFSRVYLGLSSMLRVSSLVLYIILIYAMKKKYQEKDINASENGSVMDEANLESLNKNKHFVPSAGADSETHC
Nature of the data set: Drug uptake assessed as human OATP1B1-mediated drug accumulation by cell-based assay relative to wild type protein. Format: ADME.

The target of data set [6] is T2, Solute carrier organic anion transporter family member 1B3 (Homo sapiens, UniProt Q9NPD5).
T2 sequence (Q9NPD5 whole entry): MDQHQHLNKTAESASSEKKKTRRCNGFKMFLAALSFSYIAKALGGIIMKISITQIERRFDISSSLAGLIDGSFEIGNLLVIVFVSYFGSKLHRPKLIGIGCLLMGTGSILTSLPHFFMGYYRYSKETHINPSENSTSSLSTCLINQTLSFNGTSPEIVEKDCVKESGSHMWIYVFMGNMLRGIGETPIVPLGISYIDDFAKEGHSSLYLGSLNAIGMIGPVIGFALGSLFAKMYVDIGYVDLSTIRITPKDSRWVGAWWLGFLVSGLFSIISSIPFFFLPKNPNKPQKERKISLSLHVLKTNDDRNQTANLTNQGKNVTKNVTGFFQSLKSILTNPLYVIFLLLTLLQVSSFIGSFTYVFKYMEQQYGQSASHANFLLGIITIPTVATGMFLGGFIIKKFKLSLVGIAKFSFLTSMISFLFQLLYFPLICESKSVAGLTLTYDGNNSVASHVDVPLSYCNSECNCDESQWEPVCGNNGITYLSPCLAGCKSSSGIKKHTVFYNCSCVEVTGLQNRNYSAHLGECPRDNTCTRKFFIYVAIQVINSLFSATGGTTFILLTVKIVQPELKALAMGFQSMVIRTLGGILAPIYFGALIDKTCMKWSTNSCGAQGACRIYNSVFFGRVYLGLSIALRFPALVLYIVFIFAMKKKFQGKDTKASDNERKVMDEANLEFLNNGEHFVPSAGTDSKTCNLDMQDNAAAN
Briefly: Drug uptake assessed as human OATP1B3-mediated drug accumulation by cell-based assay relative to wild type protein. The class given is ADME.

In data set [7] the target is T3, Organic anion transporter 3 (Homo sapiens, UniProt Q8TCC7).
T3 sequence (Q8TCC7 whole entry): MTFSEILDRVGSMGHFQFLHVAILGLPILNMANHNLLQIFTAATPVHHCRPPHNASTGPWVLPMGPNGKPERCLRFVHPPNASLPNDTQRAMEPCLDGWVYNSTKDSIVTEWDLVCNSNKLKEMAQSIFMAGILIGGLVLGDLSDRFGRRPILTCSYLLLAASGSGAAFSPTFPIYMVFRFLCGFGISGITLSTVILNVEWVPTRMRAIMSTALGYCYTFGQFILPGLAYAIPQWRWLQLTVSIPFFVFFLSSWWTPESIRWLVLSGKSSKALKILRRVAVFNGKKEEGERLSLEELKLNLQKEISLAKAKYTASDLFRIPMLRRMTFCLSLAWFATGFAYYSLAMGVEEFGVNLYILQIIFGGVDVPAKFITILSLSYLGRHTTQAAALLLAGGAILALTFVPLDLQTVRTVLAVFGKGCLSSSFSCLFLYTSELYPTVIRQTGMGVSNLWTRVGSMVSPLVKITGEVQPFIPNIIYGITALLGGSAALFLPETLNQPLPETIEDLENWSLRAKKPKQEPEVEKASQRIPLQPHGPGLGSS
Nature of the data set: Inhibition of OAT3 (unknown origin).

For data set [8], the target named is Voltage-gated inwardly rectifying potassium channel KCNH2 (Homo sapiens, UniProt Q12809). Briefly: Inhibition of human ERG by patch clamp method. (Patch clamp records ionic current or voltage across a cell membrane.)
A short description of data set [9]: Volume of distribution at steady state in rat at 1 mg/kg, iv and 3 mg/kg, po. The following applies: in vivo, read-out: Vdss. The class given is ADME, organism-based.
Data set [10] is described as follows: Oral bioavailability in rat at 3 mg/kg. The class given is ADME, organism-based. Particulars: in vivo.
A short description of data set [11]: Renal clearance in dog at 0.363 mg/kg, iv and 0.737 mg/kg, po relative to GFR x fraction unbound. Format: ADME, organism-based, Canis lupus familiaris. The following applies: in vivo.

Chain of Voltage-gated inwardly rectifying potassium channel KCNH2 (Q12809 whole entry): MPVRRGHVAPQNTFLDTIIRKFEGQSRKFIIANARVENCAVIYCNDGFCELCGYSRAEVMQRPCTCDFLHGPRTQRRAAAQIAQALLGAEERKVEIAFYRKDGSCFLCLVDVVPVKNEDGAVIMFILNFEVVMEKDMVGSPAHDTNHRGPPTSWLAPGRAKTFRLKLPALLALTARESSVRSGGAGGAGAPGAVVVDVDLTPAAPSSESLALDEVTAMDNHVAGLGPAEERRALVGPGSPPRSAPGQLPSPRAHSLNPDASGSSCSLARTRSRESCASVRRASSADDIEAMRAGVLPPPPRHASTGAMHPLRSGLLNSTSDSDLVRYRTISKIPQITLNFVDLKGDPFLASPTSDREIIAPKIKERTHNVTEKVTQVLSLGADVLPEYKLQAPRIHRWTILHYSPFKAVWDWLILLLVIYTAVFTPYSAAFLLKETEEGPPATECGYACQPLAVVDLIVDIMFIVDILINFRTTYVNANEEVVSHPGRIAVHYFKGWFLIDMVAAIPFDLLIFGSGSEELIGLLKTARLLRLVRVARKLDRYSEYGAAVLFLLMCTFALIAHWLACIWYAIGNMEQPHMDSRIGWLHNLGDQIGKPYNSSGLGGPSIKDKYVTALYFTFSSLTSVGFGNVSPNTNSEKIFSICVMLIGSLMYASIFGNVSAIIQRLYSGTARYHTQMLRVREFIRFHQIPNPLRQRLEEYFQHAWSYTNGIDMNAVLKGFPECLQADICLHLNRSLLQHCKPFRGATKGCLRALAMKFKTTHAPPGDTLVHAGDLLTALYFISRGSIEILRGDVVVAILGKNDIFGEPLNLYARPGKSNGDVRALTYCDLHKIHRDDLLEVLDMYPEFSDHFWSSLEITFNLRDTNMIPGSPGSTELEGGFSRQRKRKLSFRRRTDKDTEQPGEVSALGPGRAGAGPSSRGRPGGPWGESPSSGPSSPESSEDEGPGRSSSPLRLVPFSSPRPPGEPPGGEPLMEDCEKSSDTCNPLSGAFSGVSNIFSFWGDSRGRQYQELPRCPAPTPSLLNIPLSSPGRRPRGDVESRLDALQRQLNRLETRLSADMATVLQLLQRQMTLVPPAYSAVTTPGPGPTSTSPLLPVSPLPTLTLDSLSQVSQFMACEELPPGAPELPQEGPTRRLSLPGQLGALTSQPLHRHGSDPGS

For the molecule `O=S(=O)(Nc1ccc(C(F)(F)F)nc1)c1ccccc1C(F)(F)F`, the concentration in solution in [1] (solubility) came to 620 µM (≈ 230 µg/mL). Also, in [2], the microsomal CLint was less than 14 µL/min/mg. Moreover, the free fraction (fraction unbound) (commonly the share of the substance not bound to proteins or other matrix) came out at 0.0084 in [3] and 0.01 in [4]. Besides, the “fold change (FC)” value in [5] is reported as 0.902; in data set [6], 0.582. In addition, the IC50 (commonly the concentration that gives 50% inhibition) is 3.3 µM in [7] and greater than 100 µM in data set [8]. Moreover, in [9], the Vd was found to be 0.4 L/kg. Besides, the bioavailability in data set [10] was found to be 98%. The molecule also gave a CL in data set [11] of less than 2%.
As to `O=S(=O)(Nc1cncc(C(F)(F)F)c1)c1ccccc1C(F)(F)F`, in data set [1], the concentration in solution (solubility) was 489 µM (≈ 181 µg/mL). Moreover, the microsomal CLint in data set [2] turned out to be 35 µL/min/mg. Also, the figures for the fraction unbound in data set [3] and in [4] were 0.0034 and 0.057, respectively. Moreover, the results for the “fold change (FC)” value in data set [5] and in data set [6] were 0.573 and 0.702, respectively. Further, the IC50 in data set [7] was 3.4 µM; in data set [8] it was greater than 100 µM. In addition, the Vd in [9] turned out to be 0.14 L/kg. In addition, the bioavailability in data set [10] came out at 150%. Also, in data set [11], the CL was less than 2%.
